# Measured values reported in PMC5075098, “Preclinical Evaluation of the Stability, Safety, and Efficacy of CD101, a Novel Echinocandin” (Antimicrobial Agents and Chemotherapy, 2016).
# Starred links: 1 amine or outer side, 2 acyl side, 3 side chain; linkers in the order of their positions; H or OH if unused. Positions of bridges follow the written chain, without caps; N, C: chain ends. Non-standard residues stand in square brackets, D forms with d. Residues, ends and D or L forms follow the SMILES beside them. *: point of attachment. Orn(4R-OH,5R-OCH2CH2NMe3+) = C[N+](C)(C)CCO[C@@H](N[*:3])[C@H](O)C[C@H](N[*:1])C(=O)[*:2]; pTerphenylCO(4''-OnC5H11) = CCCCCOc1ccc(-c2ccc(-c3ccc(C(=O)*)cc3)cc2)cc1; hTyr(3S-OH,4S-OH) = N[C@H](C(=O)O)[C@H](O)[C@@H](O)c1ccc(O)cc1; Pro(3S-OH,4S-Me) = C[C@H]1CN[C@H](C(=O)O)[C@H]1O; Hyp = O=C(O)[C@@H]1C[C@@H](O)CN1
# Key:
# [1] = Plasma protein binding, rapid equilibrium dialysis; format: in vitro ADME; details: human, pH 7.4, read-out: protein bound (converted)
# Protocol: (§1) Rapid equilibrium dialysis (RED) ([16]) was used to determine cross-species protein binding of CD101 in CD-1 mouse, Sprague-Dawley rat, cynomolgus monkey, chimpanzee, and human plasma. […] Dialysis buffer (350 μl of phosphate-buffered saline [PBS], pH 7.4, with 100 mM sodium phosphate) was loaded into the buffer (left) channel of the RED device. The device was agitated gently at 37°C for 4 h. Samples were placed into a new 96-well plate for matrix matching (25 μl of plasma added to the dialysis buffer aliquots or 25 μl of dialysis buffer to the plasma aliquots). […] Following centrifugation, 200 μl of the supernatant was transferred to a clean 96-well plate and evaporated to dryness at 37°C under nitrogen. Samples were reconstituted in 100 μl of 1:1 acetonitrile-water prior to analysis by LC-MS/MS. The percentage bound was calculated as the difference between 100% and the percentage free (the ratio of the concentration in supernatant to the concentration in plasma).
# C. albicans R303 = details: CLSI broth microdilution, read after 24 h at 35°C, prominent growth inhibition (∼50%)
# Protocol: Enumeration of MIC and MEC assay inoculum viable counts was performed by plating aliquots of the starting assay inoculum on Sabouraud dextrose agar.
# [2] = Plasma protein binding, rapid equilibrium dialysis; format: in vitro ADME, cynomolgus monkey; details: monkey, pH 7.4, read-out: protein bound (converted)
# Protocol: as §1
# [3] = Reactive metabolite screening (glutathione trapping); format: in vitro ADME
# Protocol: Samples were diluted to 10 μg/ml into 50:50 acetonitrile-water with 0.1 formic acid. Samples were analyzed by LC (Agilent 1100) with high-resolution MS (Waters quadrupole time of flight [Q-TOF] Premier mass spectrometer with electrospray interface) with concurrent low- and high-energy scans to obtain full-scan parent and product fragment ions. The analytical column was a Phenomenex Kinetex (2.6-μm C18, 100 by 3.0 mm). Waters MassLynx 4.1 software was used for data analysis.
# [4] = Plasma protein binding, ultracentrifugation; format: in vitro ADME; details: human, ∼500,000 × g 2.5 h at 37°C, LC-MS/MS, SEM, read-out: % of protein bound (SEM) (converted)
# Protocol: Ultracentrifugation ([15]) was used to compare human plasma protein binding of CD101 and anidulafungin. […] Following ultracentrifugation, the supernatant was transferred to a microtiter plate containing 50 μl plasma for matrix-matching purposes and quenched with 400 μl of cold acetonitrile (ACN) with 0.1% formic acid containing diclofenac as an internal standard. Quenched samples were centrifuged for 5 min at 10°C (e.g., 3,100 rpm [2,000 × g]) to sediment the precipitated proteins, and 50 μl supernatant was transferred to a microtiter plate containing 100 μl of water prior to analysis by LC-MS/MS. The percentage bound was the difference between 100% and the percentage free (the ratio of the concentration in supernatant to the total concentration).
# [5] = 2-week repeat-dose toxicity and hepatotoxicity screening; format: in vivo, Sprague-Dawley rats
# Protocol: Dosing solutions were prepared in a vehicle comprising 5% mannitol containing 2.5% polysorbate 80 (Tween 80) in 0.3% acetic acid.
# Animals were randomly assigned to dose groups and stratified by weight to achieve similar group mean body weights (males, 255 to 318 g; females, 192 to 215 g). Blood, urine, and liver samples (excised and preserved in 10% neutral buffered formalin) were obtained on day 15. Plasma liver enzyme levels were assessed. Liver tissues were processed to paraffin blocks and prepared for slides. Slides were stained with hematoxylin and eosin. Hematology data were collected using the Advia 120 hematology analyzer. Coagulation data were collected using the Diagnostica STA compact coagulation analyzer. Clinical chemistry data were collected using the AU400 chemistry analyzer. Qualitative and quantitative urinalysis was recorded using iRICELL 1500 UA analyzer. Clinical effects were assessed for determination of the maximum tolerated dose (MTD).
# Statistical evaluations were performed on in-life and clinical pathology numerical data to determine statistical significance following a decision tree. First, the homogeneity of the data was determined by Bartlett's test. If the data were homogeneous, a one-way analysis of variance was performed to assess statistical significance. If statistically significant differences between the means were found, Dunnett's test was used to determine the degree of significance from the control means (P < 0.05, P < 0.01, and P < 0.001). If the data were nonhomogeneous, the Kruskal-Wallis nonparametric analysis was performed to assess statistical significance. If statistically significant differences between the means were found (P < 0.05, P < 0.01, and P < 0.001), the Mann-Whitney U test was used to determine the degree of significance from the control means (P < 0.05, P < 0.01, and P < 0.001).
# [6] = test system: A. fumigatus (ATCC 13073); assay: Neutropenic mouse model of A. fumigatus infection, survival; details: for survival: 10-day observation, n = 10/group
# Protocol: Animals were immunosuppressed by three i.p. injections of cyclophosphamide (the first injection at 6 mg/mouse 3 days before inoculation and the second and third injections at 2 mg/mouse on 1 and 4 days after inoculation). […] Dose administration started 1 and 7 h after infection. […] An increase of 50% or more in the survival rate of the active groups compared to the vehicle group indicated significant antifungal efficacy.
# [7] = CYP450 inhibition in human liver microsomes; details: pH 7.4, IC50, human liver microsomes, 0.03 to 30 μM, 5 min at 37°C, pH 7.4, LC-MS/MS, duplicate
# Protocol: The final DMSO content in the reaction mixture was equal in all solutions used within an assay and was less than 0.2%. […] After incubation for 5 min at 37°C, the reactions were terminated by addition of methanol-containing internal standard (propranolol) for analytical quantification. The quenched samples were incubated at 4°C for 10 min and centrifuged at 4°C for 10 min.
# [8] = CD101 2, 6, 20 mg/kg/day i.v. 14 days, rats
smiles,measurement,setting,value
"CCCCCOc1ccc(-c2ccc(-c3ccc(C(=O)N[C@H]4C[C@@H](O)[C@@H](OCC[N+](C)(C)C)NC(=O)[C@@H]5[C@@H](O)[C@@H](C)CN5C(=O)[C@H]([C@@H](C)O)NC(=O)[C@H]([C@H](O)[C@@H](O)c5ccc(O)cc5)NC(=O)[C@@H]5C[C@@H](O)CN5C(=O)[C@H]([C@@H](C)O)NC4=O)cc3)cc2)cc1 [CD101] ({pTerphenylCO(4''-OnC5H11)}-[Orn(4R-OH,5R-OCH2CH2NMe3+)]T[Hyp][hTyr(3S-OH,4S-OH)]T[Pro(3S-OH,4S-Me)]; lactam 1-C)",fraction unbound,[1],0.013
same,MIC,C. albicans R303,0.12 µg/mL
same,fraction unbound,[2],0.011
same,degradation on incubation with and without GSH,"[3]; PBS pH 7.4, 37°C, 24 h of incubation (Fig. 3 legend), LC-HRMS",No degradation observed
same,GSH adduct formation (reactive intermediate),"[3]; PBS pH 7.4, excess GSH, 37°C, LC with high-resolution MS",not found to generate any GSH adduct
same,fraction unbound,[4]; 1 μg/ml,0.02
same,fraction unbound,[4]; 5 μg/ml,0.017
same,repeat-dose systemic or target organ toxicity,"[5]; 14-day i.v. infusion, rats, CD101 20 mg/kg/day, anidulafungin 40 mg/kg/day (comparable exposure)",did not appear to elicit any evidence of repeat-dose systemic or target organ toxicity
same,early deaths,[5]; [8],no early deaths
same,"effects on body weight, hematology, coagulation, or urinalysis",[5]; [8],"did not exhibit effects on body weight, hematology, coagulation, or urinalysis"
same,increases in neutrophils,"[5]; CD101 2, 6, 20 mg/kg/day i.v. 14 days, rats, P ≤ 0.01, within normal limits, considered incidental",up to 31%
same,"increases in reticulocytes, hemoglobin, hematocrit, activated partial thromboplastin time, BUN, sodium, total bilirubin, total protein, chloride, and globulin","[5]; CD101 2, 6, 20 mg/kg/day i.v. 14 days, rats, P ≤ 0.05, within normal limits, considered incidental",less than 20%
same,microscopic changes in the liver,"[5]; day 15, H&E, CD101 2, 6, or 20 mg/kg/day, anidulafungin 40 mg/kg/day (some of the females)",no microscopic changes
same,survival,[6]; 0.2 mg/kg i.v. BID for 5 days,80%
same,survival,[6]; 1 mg/kg i.v. BID for 5 days,90%
same,survival,[6]; 5 mg/kg i.v. BID for 5 days,100%
same,10-day survival rate compared to the vehicle group,"[6]; BID for 5 days, CD101 all dose groups and anidulafungin 1 and 5 mg/kg i.v. (P < 0.05), amphotericin B 0.3 mg/kg i.p.",significant increase
same,IC50,[7]; midazolam substrate (2.5 μM),29 µM
same,IC50,[7]; testosterone substrate (50 μM),> 30 µM
